From the Kinase Knowledgebase extract (Sharma et al. 2016) come the findings set out here.

Each structure is given as a SMILES string. Where only a bound is given, the exact number is not on record here.

A word on the IC50: it is the concentration needed to halve the response being measured.

This assay deals with PIK3CA (human) (UniProt P42336). Nature of the assay: Assessment of PI3KCA Kinase Activity.
Chain of PIK3CA (human) (P42336 whole entry, looked up): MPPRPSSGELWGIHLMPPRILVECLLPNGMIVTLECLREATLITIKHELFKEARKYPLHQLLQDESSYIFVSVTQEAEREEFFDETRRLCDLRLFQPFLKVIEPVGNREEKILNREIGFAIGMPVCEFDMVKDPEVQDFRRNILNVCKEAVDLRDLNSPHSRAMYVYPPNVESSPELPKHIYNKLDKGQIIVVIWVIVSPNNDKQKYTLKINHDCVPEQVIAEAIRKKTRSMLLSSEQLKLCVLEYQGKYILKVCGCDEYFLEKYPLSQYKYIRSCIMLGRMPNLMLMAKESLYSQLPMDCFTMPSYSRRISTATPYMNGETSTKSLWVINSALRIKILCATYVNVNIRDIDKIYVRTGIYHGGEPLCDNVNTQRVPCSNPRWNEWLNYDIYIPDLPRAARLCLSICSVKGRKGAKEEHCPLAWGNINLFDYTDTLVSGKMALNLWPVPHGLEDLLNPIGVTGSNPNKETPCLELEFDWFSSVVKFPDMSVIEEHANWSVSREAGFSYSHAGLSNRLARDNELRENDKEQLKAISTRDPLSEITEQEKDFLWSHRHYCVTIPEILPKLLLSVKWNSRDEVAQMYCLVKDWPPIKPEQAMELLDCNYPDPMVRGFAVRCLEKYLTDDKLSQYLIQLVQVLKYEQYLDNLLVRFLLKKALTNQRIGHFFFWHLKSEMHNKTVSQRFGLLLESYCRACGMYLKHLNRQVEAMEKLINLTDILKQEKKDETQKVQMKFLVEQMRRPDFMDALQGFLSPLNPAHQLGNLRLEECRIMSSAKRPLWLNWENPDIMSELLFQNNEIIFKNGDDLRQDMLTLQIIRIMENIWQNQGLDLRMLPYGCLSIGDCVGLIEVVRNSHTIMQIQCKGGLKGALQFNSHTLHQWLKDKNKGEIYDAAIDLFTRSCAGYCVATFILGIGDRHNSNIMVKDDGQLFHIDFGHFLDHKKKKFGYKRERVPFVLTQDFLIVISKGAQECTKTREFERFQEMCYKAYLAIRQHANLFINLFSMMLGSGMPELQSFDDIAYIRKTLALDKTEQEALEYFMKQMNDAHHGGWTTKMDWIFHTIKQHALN
With `CN(C)CC(=O)Nc1cc(-c2sc(-c3nnc[nH]3)c(-c3ccc(Cl)cc3Cl)c2C#N)ccn1`, the half-maximal inhibitory concentration (IC50) fell in the range of 100 to 1000 nM.
Under `O=C(CCSc1ccccc1)Nc1cc(-c2nc(-c3ccccc3)c(-c3nnc[nH]3)s2)ccn1` stands 100 to 1000 nM.
The same measure for `CC(=O)N1CCN(Cc2ccc3nc(C)c(-c4nc(-c5ccccc5)c(-c5nc[nH]n5)s4)n3c2)CC1`: < 100 nM; for `COCC(=O)Nc1cc(-c2sc(-c3nnc[nH]3)c(-c3ccc(Cl)cc3Cl)c2C#N)ccn1`: < 100 nM; for `CC(=O)Nc1cc(-c2nc(-c3csc4ccccc34)c(-c3ncc[nH]3)s2)ccn1`: 100 to 1000 nM.
`Cc1nn2ccc(OC3CCNCC3)cc2c1-c1nc(-c2ccccc2)c(-c2nc[nH]n2)s1`: the IC50 was < 100 nM.
Regarding `N#Cc1c(-c2ccnc(NC(=O)CCl)c2)sc(-c2nnc[nH]2)c1-c1ccc(Cl)cc1Cl`, the half-inhibitory concentration (IC50) was < 100 nM.
Under `CNC(=O)Nc1cc(-c2sc(-c3nnc[nH]3)c(-c3ccc(Cl)cc3Cl)c2C#N)ccn1` stands < 100 nM; under `Cc1nc2ccc(CCCN)cn2c1-c1nc(-c2ccccc2)c(-c2nnc[nH]2)s1`, < 100 nM; under `Cc1ccc(-c2nc(-c3c(C)nn4ccccc34)sc2-c2nc[nH]n2)s1`, < 100 nM.
The same measure for `Cc1nc2ccc(CNCCN)cn2c1-c1nc(-c2ccccc2)c(-c2nnc[nH]2)s1`: < 100 nM; for `CCOc1nc(-c2ccnc(NC(=O)c3ccco3)c2)sc1-c1nnc[nH]1`: 100 to 1000 nM; for `N#Cc1c(-c2ccnc(NC(N)=O)c2)sc(-c2ccn[nH]2)c1-c1ccc(Cl)cc1Cl`: < 100 nM.
The same measure for `Cc1nn2ccccc2c1-c1nc(C2CCCCC2)c(-c2nnc[nH]2)s1`: < 100 nM; for `Cc1nn2ccccc2c1-c1nc(C(C)(C)C)c(-c2nnc[nH]2)s1`: < 100 nM; for `N#Cc1c(-c2ccnc(NC(N)=O)c2)sc(-c2nnc[nH]2)c1-c1ccc(Cl)cc1Cl`: < 100 nM.
For `CC(=O)N1CCN(CCOc2ccn3nc(C)c(-c4nc(-c5ccccc5)c(-c5nc[nH]n5)s4)c3c2)CC1`, the half-maximal inhibitory concentration (IC50) is < 100 nM.
Turning to `CNC(=O)Nc1cc(-c2sc(-c3ccn[nH]3)c(-c3ccc(Cl)cc3Cl)c2C#N)ccn1`, the concentration for half-maximal inhibition (IC50) lay in the range of 100 to 1000 nM.
Under `CCOc1nc(-c2ccnc(NC(=O)c3ccc(F)cc3)c2)sc1-c1nnc[nH]1` stands 100 to 1000 nM; under `N#Cc1c(-c2ccnc(NC(=O)C3CC3)c2)sc(-c2ncc[nH]2)c1-c1ccc(Cl)cc1Cl`, < 100 nM.
The same measure for `CC(=O)Nc1cc(-c2nc(NC(C)=O)c(-c3ncc[nH]3)s2)ccn1`: 100 to 1000 nM; for `CC(=O)Nc1cc(-c2nc(-c3ccsc3)c(-c3ncc[nH]3)s2)ccn1`: 100 to 1000 nM.
The same measure for `O=C1CCc2c(-c3nc(-c4ccc(Cl)cc4Cl)c(-c4ncc[nH]4)s3)ccnc2N1`: < 100 nM; for `COc1cccc(F)c1-c1nc(-c2c(C)nn3ccc(OCCN4CCN(S(C)(=O)=O)CC4)cc23)sc1-c1nc[nH]n1`: < 100 nM.
With `N#Cc1c(-c2ccnc(NCCO)c2)sc(-c2nnc[nH]2)c1-c1ccc(Cl)cc1Cl`, the concentration for half-maximal inhibition (IC50) was < 100 nM.
The same measure for `CC(=O)Nc1cc(-c2nc(-c3cccc(C)c3)c(-c3ncc[nH]3)s2)ccn1`: 100 to 1000 nM; for `Cc1nn2ccc(OCCN3CCN(C)CC3)cc2c1-c1nc(-c2ccccc2)c(-c2nc[nH]n2)s1`: < 100 nM; for `N#Cc1c(-c2ccnc(NC(=O)c3cccnc3)c2)sc(-c2nnc[nH]2)c1-c1ccc(Cl)cc1Cl`: 100 to 1000 nM.
As for `CNCC(=O)Nc1cc(-c2sc(-c3nnc[nH]3)c(-c3ccc(Cl)cc3Cl)c2C#N)ccn1`, the IC50 was in the range of 100 to 1000 nM.
`Nc1nc2c(-c3cc(-c4ccc(Cl)cc4Cl)c(-c4ncc[nH]4)s3)ncnc2s1`: the IC50 was < 100 nM.
In turn, `Cc1nn2ccccc2c1-c1nc(-c2ccc(N3CCOCC3)nc2)c(-c2nc[nH]n2)s1` registered a 50% inhibitory concentration (IC50) of 100 to 1000 nM.
The same measure for `CCOc1nc(-c2ccnc(NC(=O)c3cccc(F)c3)c2)sc1-c1nnc[nH]1`: < 100 nM; for `Cc1nn2ccccc2c1-c1nc(Cc2ccccc2)c(-c2nnc[nH]2)s1`: 100 to 1000 nM.
Take `CC(=O)Nc1cc(-c2cc(-c3ccc(Cl)cc3Cl)c(-c3ncc[nH]3)s2)ccn1`: the IC50 is < 100 nM.
The same measure for `COC[C@@H]1CCCN1CCC(=O)Nc1cc(-c2nc(-c3ccccc3)c(-c3nnc[nH]3)s2)ccn1`: 100 to 1000 nM; for `Cc1nn2ccccc2c1-c1nc(-c2cccc3ncccc23)c(-c2nc[nH]n2)s1`: 100 to 1000 nM.
Take `CC(=O)Nc1cc(-c2nc(-c3ccc(Cl)cc3)c(-c3ncc[nH]3)s2)ccn1`: the IC50 was 100 to 1000 nM.
The same measure for `CC(=O)Nc1cc(-c2nc(-c3ccccc3)c(-c3nnc[nH]3)s2)ccn1`: < 100 nM; for `CC(=O)Nc1cc(-c2nc(-c3ccc(C(=O)N4CCNCC4)cc3)c(-c3ncc[nH]3)s2)ccn1`: 100 to 1000 nM; for `CCCC(=O)Nc1cc(-c2nc(OCC)c(-c3nnc[nH]3)s2)ccn1`: 100 to 1000 nM.
Under `O=C(Nc1cc(-c2nc(-c3ccc(Cl)cc3Cl)c(-c3ncc[nH]3)s2)ccn1)C1CC1` stands < 100 nM; under `Cc1nn2ccc(OCCN3CCC(O)CC3)cc2c1-c1nc(-c2ccccc2)c(-c2nc[nH]n2)s1`, < 100 nM; under `CC(=O)Nc1cc(-c2sc(-c3nnc[nH]3)c(-c3ccc(Cl)cc3Cl)c2C#N)ccn1`, < 100 nM.
In turn, `CC(=O)Nc1cc(-c2nc(-c3ccc(N(C)C)cc3)c(-c3ncc[nH]3)s2)ccn1` registered a half-maximal inhibitory concentration (IC50) of 100 to 1000 nM.
Under `CC(=O)Nc1cc(-c2nc(-c3cc(Cl)ccc3Cl)c(-c3ncc[nH]3)s2)ccn1` stands < 100 nM; under `CNc1cc(-c2sc(-c3nnc[nH]3)c(-c3ccc(Cl)cc3Cl)c2C#N)ccn1`, < 100 nM; under `CC(=O)Nc1cc(-c2nc(-c3ccc(F)cc3F)c(-c3ncc[nH]3)s2)ccn1`, < 100 nM.
The same measure for `COC(=O)c1cccc(-c2nc(-c3c(C)nn4ccccc34)sc2-c2nc[nH]n2)c1`: 100 to 1000 nM; for `CC(=O)Nc1cc(-c2nc(-c3cccc(Cl)c3)c(-c3ncc[nH]3)s2)ccn1`: 100 to 1000 nM; for `N#Cc1c(-c2ccnc(NS(=O)(=O)c3ccccc3)c2)sc(-c2nnc[nH]2)c1-c1ccc(Cl)cc1Cl`: 100 to 1000 nM.
The same measure for `CCOc1nc(-c2ccnc(NC(=O)Cc3cccs3)c2)sc1-c1nnc[nH]1`: 100 to 1000 nM; for `CC(=O)Nc1cc(-c2sc(-c3cnn[nH]3)c(-c3ccc(Cl)cc3Cl)c2C#N)ccn1`: < 100 nM; for `Cc1nn2ccccc2c1-c1nc(-c2cccc(F)c2)c(-c2nnc[nH]2)s1`: < 100 nM.
As to `Cc1nn2ccsc2c1-c1nc(-c2ccccc2)c(-c2cocn2)s1`, the IC50 lay within 100 to 1000 nM.
Compound `CC(=O)Nc1cc(-c2nc(-c3ccc(N(C)C)nc3)c(-c3ncc[nH]3)s2)ccn1` showed an IC50 of 100 to 1000 nM.
In the case of `COCCNc1nccc(-c2sc(-c3nnc[nH]3)c(-c3ccc(Cl)cc3Cl)c2C#N)n1`, the half-inhibitory concentration (IC50) is < 100 nM.
The same measure for `N=C(N)Nc1cc(-c2cc(-c3ccc(Cl)cc3Cl)c(-c3ncc[nH]3)s2)ccn1`: 100 to 1000 nM; for `Cc1nn2ccccc2c1-c1nc(-c2ccc(CN)cc2)c(-c2nc[nH]n2)s1`: 100 to 1000 nM.
Under `CC(=O)Nc1nc2c(-c3cc(-c4ccc(Cl)cc4Cl)c(-c4ncc[nH]4)s3)ncnc2s1` stands 100 to 1000 nM; under `CC(=O)Nc1cc(-c2nc(-c3cc4ccccc4s3)c(-c3ncc[nH]3)s2)ccn1`, < 100 nM; under `COC(=O)Nc1cc(-c2cc(-c3ccc(Cl)cc3Cl)c(-c3ncc[nH]3)s2)ccn1`, < 100 nM.
Under `CC(=O)Nc1cc(-c2nc(-c3ccc(C)cc3)c(-c3ncc[nH]3)s2)ccn1` stands < 100 nM; under `Cc1nn2ccc(OCCN3CCC(F)(F)CC3)cc2c1-c1nc(-c2ccccc2)c(-c2nc[nH]n2)s1`, < 100 nM.
Compound `CNc1ncc(Cl)c(-c2sc(-c3nnc[nH]3)c(-c3ccc(Cl)cc3Cl)c2C#N)n1` had an IC50 of 100 to 1000 nM.
The same measure for `Cc1nc2scc(C)n2c1-c1nc(-c2ccccc2)c(-c2nc[nH]n2)s1`: 100 to 1000 nM.
The same measure for `CCOc1nc(-c2ccnc(NC(=O)COC)c2)sc1-c1nnc[nH]1`: 100 to 1000 nM; for `CCOc1nc(-c2ccnc(NC(=O)c3ccc(N(C)C)cc3)c2)sc1-c1nnc[nH]1`: 100 to 1000 nM; for `Cc1nn2ccc(OCCO)cc2c1-c1nc(-c2ccccc2)c(-c2nnc[nH]2)s1`: < 100 nM.
The same measure for `Cc1nn2ccccc2c1-c1nc(OCc2ccccc2)c(-c2nnc[nH]2)s1`: < 100 nM; for `O=C(Nc1cc(-c2cc(-c3ccc(Cl)cc3Cl)c(-c3ncc[nH]3)s2)ccn1)C1CC1`: < 100 nM.
Regarding `COc1cccc(F)c1-c1nc(-c2c(C)nn3ccc(OC4CCN(C(C)=O)CC4)cc23)sc1-c1nc[nH]n1`, the IC50 was < 100 nM.
Under `Cc1nn2ccccc2c1-c1nc(-c2cccc(F)c2F)c(-c2nc[nH]n2)s1` stands < 100 nM.
In the case of `CC(=O)Nc1cc(-c2nc(-c3ccc(C(C)(C)C#N)cc3)c(-c3ncc[nH]3)s2)ccn1`, the IC50 lay in the range of 100 to 1000 nM.
For `N#Cc1c(-c2ccnc(N)c2)sc(-c2cnn[nH]2)c1-c1ccc(Cl)cc1Cl`, the half-inhibitory concentration (IC50) fell in the range of 100 to 1000 nM.
The same measure for `Cc1nc(NC(=O)C2CC2)sc1-c1nc(-c2ccccc2)c(-c2nc[nH]n2)s1`: < 100 nM; for `N#Cc1c(-c2ccnc(NC(=O)CO)c2)sc(-c2nnc[nH]2)c1-c1ccc(Cl)cc1Cl`: < 100 nM; for `COC(=O)c1ccc(-c2nc(-c3ccnc(NC(C)=O)c3)sc2-c2ncc[nH]2)cc1`: 100 to 1000 nM.
The same measure for `Cc1nn2ccccc2c1-c1nc(-c2ccc(CO)cc2)c(-c2nc[nH]n2)s1`: < 100 nM.
For the compound `COc1cccc(F)c1-c1nc(-c2c(C)nn3ccc(OCCN4CCOCC4)cc23)sc1-c1nc[nH]n1`, the IC50 is < 100 nM.
For the compound `COc1cccc(F)c1-c1nc(-c2c(C)nn3ccccc23)sc1-c1nc[nH]n1`, the IC50 was < 100 nM.
The same measure for `N#Cc1c(-c2ccnc(NC(=O)CCc3ccccc3)c2)sc(-c2nnc[nH]2)c1-c1ccc(Cl)cc1Cl`: 100 to 1000 nM; for `Cc1nn2ccc(OCc3ccccc3)cc2c1-c1nc(-c2ccccc2)c(-c2nnc[nH]2)s1`: < 100 nM.
As for `Cc1nn2ccc(O)cc2c1-c1nc(-c2ccccc2)c(-c2nnc[nH]2)s1`, the IC50 was < 100 nM.
Under `Cc1nn2ccc(OCCN3CCCCC3)cc2c1-c1nc(-c2ccccc2F)c(-c2nc[nH]n2)s1` stands < 100 nM; under `Clc1ccc(-c2cc(-c3ccnc4[nH]cnc34)sc2-c2ncc[nH]2)c(Cl)c1`, < 100 nM.
